The record followed here is patent US6001850A, “Thienopyridine derivatives, their production and use” (Takeda Chemical Industries, Ltd., priority 1996, dated 1999).

The target in the test is T1, human GnRH receptor (Homo sapiens, UniProt P30968).
T1 construct: expressed in transfected cells; host or cells: CHO (Chinese Hamster Ovary) cells, membrane fraction
T1 sequence (P30968 1-328): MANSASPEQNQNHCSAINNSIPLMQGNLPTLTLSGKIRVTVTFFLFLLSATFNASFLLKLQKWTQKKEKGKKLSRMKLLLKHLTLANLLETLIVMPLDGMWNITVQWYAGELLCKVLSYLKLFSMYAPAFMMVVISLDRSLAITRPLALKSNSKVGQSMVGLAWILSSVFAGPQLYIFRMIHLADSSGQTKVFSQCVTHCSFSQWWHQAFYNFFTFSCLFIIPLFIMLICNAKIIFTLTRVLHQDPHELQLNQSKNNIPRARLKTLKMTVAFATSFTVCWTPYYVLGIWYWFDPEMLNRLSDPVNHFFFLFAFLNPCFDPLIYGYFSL
As to the kind of experiment: Determination of inhibitory rate of 125I-leuprorelin binding (membrane fraction of CHO cells expressing human GnRH receptors). Particulars: CHO cell membrane expressing human GnRH receptors, 25° C., 60 minutes, Hill plot. The protocol:
(1)Preparation of ^125 I-leuprorelin:
Ten μl of 3×10^-4 M aqueous solution of leuprorelin and 10 μl of 0.01 mg/ml lactoperoxidase in 0.1M HEPES buffer (pH 7.4) were taken into a tube, to which was added 10 μl (37 MBq in 0.1 M HEPES buffer (pH7.4)) of an Na^125 I solution. The mixture was stirred, to which was added 10 μl of 0.001% H2O2, then reaction was allowed to proceed for 20 minutes at room temperature. To the reaction mixture was added 700 μl of a 0.05% TFA solution to cease the reaction. The product was purified by means of reversed phase HPLC. Conditions of HPLC are as follows. ^125 I-leuprorelin was eluted at a retention time of 26 to 27 minutes.
(2) Preparation of membrane fraction of CHO (Chinese Hamster Ovary) cells containing human GnRH receptors
CHO cells (10^9) expressing human GnRH receptors were suspended in a phosphate-buffered saline supplemented with 5 mM EDTA (ethylenediamine tetraacetate) (PBS-EDTA). […]
The reaction was allowed to proceed at 25° C. for 60 minutes. […] After completion of the filtration, radioactivity of the ^125 I-leuprorelin remaining on the filter paper was measured with a γ-counter.
By calculation of the following formula, the binding inhibitory rate (PMB, %) of each test compound was determined.
TB: Maximum binding radioactivity.
SB: Radioactivity obtained when a compound was added. […]

What is called IC50 is the concentration that gives 50% inhibition.

The compound `C=C(C)COc1ccc(-c2sc3c(c2CN(C)Cc2ccccc2)c(=O)c(C(=O)C(C)C)cn3Cc2c(F)cccc2F)cc1` [Example 3(4), 2-[4-(2-methyl-2-propen-1-yl-oxy)phenyl]-4,7-dihydro-7-(2,6-difluorobenzyl)-3-(N-benzyl-N-methylaminomethyl)-5-isobutyryl-4-oxothieno[2,3-b]pyridine] registered an IC50 of 10 nM.
